Data as given in patent US11723362B2, “Broad-spectrum synergistic antimicrobial compositions” (The United States of America, as represented by the …, priority 2019, dated 2023).

Tests used:
[1] = tested on: P. aeruginosa ATCC 9027; assay: Tile surface disinfectant test (adapted from ASTM E1153); type: cell-based, Pseudomonas aeruginosa; details: 200 ppm; 4×10^6 CFU/mL; sprayed ceramic tile
Procedure: Tile surface disinfectant tests. Surface sanitation tests were adapted from ASTM Test Method E1153. Test bacteria (Escherichia coli ATCC 15597 and Pseudomonas aeruginosa ATCC 9027; American Type Culture Collection, Manassas, Va.) were streaked from frozen stock culture onto Mueller-Hinton agar (MHA; Sigma-Aldrich, St Louis, Mo.) and incubated at 30-37° C. for 2-4 days to produce isolated colonies. Two to three representative colonies were picked and transferred to 10 mL Mueller-Hinton broth (MHB; Sigma) and incubated at 37° C. overnight. Cultures underwent a maximum of 3 passes to fresh broth before being incubated for 48 h at 37° C. to be used as the inoculum. Sterile, glazed 2×2-inch ceramic tiles were inoculated with 100 μL of 48 h culture and allowed to dry for <1 h. Spray sanitizer solutions were prepared by mixing the test compound (5) in deionized, filtered water. Benzalkonium chloride (≥95%, Sigma) or bleach solution was used as a positive control and deionized, filtered water was used as a negative control. Solutions were transferred to 250 mL spray bottles, previously checked for spray volume consistency. For each treatment, tiles were sprayed 3 times. At the designated contact time, 15 mL of Dey-Engley broth (DEB; Sigma) was poured onto the tiles. Tiles were briskly swirled 50 times with DEB to neutralize antimicrobial agents and recover bacteria. This procedure was followed in duplicate for each treatment and contact time. The sanitizer-DEB solutions were then serially diluted in phosphate-buffered saline and plated on MHA. MHA plates were incubated at 37° C. for 18-24 h and colonies enumerated. To determine log reduction, bacteria recovered from treated tiles were compared to bacteria recovered from 2-3 replicate inoculated, untreated tiles.

[2] = tested on: Aspergillus brasiliensis ATCC 16404; assay: Fungicidal activity in ionic surfactant hand wash / foamy hand soap base formula (HW); type: cell-based; details: pH 7.0
Procedure: (§1) This example illustrates the preparation of testing parameters for antimicrobial activity of components of the inventive composition and related compositions for comparison. […] Microbes were grown on Mueller-Hinton agar (MHA, Sigma-Aldrich, St. Louis, Mo.) for 7 days until heavy sporulation was present. Spores from two agar plates were captured in sterile phosphate-buffered saline (PBS) using a sterile swab. Spores were enumerated by serial dilution in Dey-Engley neutralizing broth (DEB; Sigma-Aldrich) and spread plating on MHA. A typical spore stock was determined to contain ˜2×10^7 spores/mL. Bacteria were grown in MH broth for 24 h at 37° C., enumerated by plating, and diluted to the desired concentration as indicated.
All test formulas were adjusted to the desired pH using citric acid and/or NaOH. […] All tubes were kept at room temperature (˜21-22° C.) for 3 weeks. About 100 μL of each inoculated foamy hand soap mixture was diluted 1:10 in DEB and 100 μL of this dilution was spread plated on MHA at several time points (e.g. 3 d, 7 d, 13 d, 18 d, and 20 d). Plates were incubated at room temperature for 3-5 days for mold (1-2 days for bacteria) and colonies enumerated.
The preservative activity of a hydroxamic acid/guanylhydrazone combination was compared to other antimicrobial mixtures in an ionic surfactant-containing formula. […] The fungicidal properties of a mixture of benzhydroxamic acid and guanylhydrazone (1+7) was compared to commercial antimicrobials representing different functional classes (Table 3).

[3] = tested on: A. brasiliensis; assay: Minimum inhibitory concentration (MIC) in Mueller-Hinton broth, pH 7.4; type: cell-based, Aspergillus brasiliensis; design: Minimum inhibitory concentration: unit not given here; details: for Minimum inhibitory concentration: Table 2
Procedure: as §1
(§2) To assess the antimicrobial activity of hydroxamic acids and derivatives, the inhibitory properties of commercially available hydroxylamines and hydroxamic acids were compared to their alcohol and carboxylic acid analogues diluted in Mueller-Hinton broth at pH 7.4 (Table 1).

[4] = Dissolution / compatibility in water (observation); type: physicochemical
Procedure: Several aryl derivatives of benzhydroxamic acid were also tested.

[5] = tested on: Pseudomonas aeruginosa ATCC 9027; assay: Bactericidal activity in ionic surfactant hand wash / foamy hand soap base formula (HW); type: cell-based; details: pH 7.0
Procedure: This example illustrates the preparation of testing parameters for antimicrobial activity of components of the inventive composition and related compositions for comparison. […] Mold were grown and minimum inhibitory tests performed as previously reported (see e.g., Buckley, H. L. et al. ACS Sustain. Chem. Eng. 5, 4320-4331, 2017). Microbes were grown on Mueller-Hinton agar (MHA, Sigma-Aldrich, St. Louis, Mo.) for 7 days until heavy sporulation was present. Spores from two agar plates were captured in sterile phosphate-buffered saline (PBS) using a sterile swab. Spores were enumerated by serial dilution in Dey-Engley neutralizing broth (DEB; Sigma-Aldrich) and spread plating on MHA. A typical spore stock was determined to contain ˜2×10^7 spores/mL. Bacteria were grown in MH broth for 24 h at 37° C., enumerated by plating, and diluted to the desired concentration as indicated.
To test the various compounds, a foamy hand soap base formula was made with sodium lauryl sulfate (SLS, 2.4% w/w; Sulfochem SLS-PHP [30% active], The Lubrizol Corporation, Wickliffe, Ohio) and cocoamidopropyl betaine (CAPB, 1.2% w/w; Mackam 35 [30% active], Solvay S.A, Brussels, Belgium) in deionized water and sterilized by filtration (0.22 μm, PVDF; VWR, Radnor, Pa.). All test formulas were adjusted to the desired pH using citric acid and/or NaOH. All tubes were inoculated with 250 μL of spore inoculum (described above) to a total volume of 5 mL, for a final spore concentration of ˜1×10^6 spores/mL in each tube. […] About 100 μL of each inoculated foamy hand soap mixture was diluted 1:10 in DEB and 100 μL of this dilution was spread plated on MHA at several time points (e.g. 3 d, 7 d, 13 d, 18 d, and 20 d). Plates were incubated at room temperature for 3-5 days for mold (1-2 days for bacteria) and colonies enumerated.

[6] = tested on: S. aureus ATCC 6538; assay: AOAC Use Dilution test; type: cell-based, Staphylococcus aureus; details: 60 carriers tested, ten minutes contact time
Procedure: (§3) MICROCHEM Laboratories completed the AOAC Use dilution, semi-quantitative test method against the 3 strains of bacteria using the maximum contact time of ten minutes with three replicates from the same sample submission. For the S. aureus testing, MICROCHEM Laboratories followed ASTM E2315 method with a 10 minute exposure but only a single replicate was tested. The ASTM E2315 quantitative test method was used by MICROCHEM Laboratories to access the performance of a single replicate of the test compounds against the MS2 virus using a 10 minute contact time.
(§4) The killing efficacy of Cuminaldehyde Guanylhydrazone (CG) in water against three bacteria was evaluated using the AOAC Use Dilution test. While a passing kill rate against Pseudomonas aeruginosa, and a close to, but just below the target kill rate, for Salmonella enterica were detected, a kill rate against Staphylococcus aureus was not achieved. The test results were the same for both concentrations tested (0.2 wt. % and 0.5 wt. %).

[7] = tested on: P. aeruginosa ATCC 15442; assay: AOAC Use Dilution test; type: cell-based, Pseudomonas aeruginosa; details: 60 carriers tested, ten minutes contact time
Procedure: as §3, §4

[8] = Stability of CG in commercial household products; type: physicochemical; details: nonionic spray cleaners, polishes, hand soap, liquid dish soap; refrigerator (2.8° C.), room temperature (21.1° C.), oven (40° C.), 3 freeze-thaw cycles
Procedure: Freeze-thaw studies were conducted using a commercial refrigerator freezer and were completed over a two week period where the samples were frozen, thawed and observed for 3 cycles. Additional samples were stored in 15 mL Falcon tubes in the refrigerator, at room temperature and in a 40° C. oven. These samples were removed and evaluated at three time points in conjunction with the freeze-thaw samples. The compositions of the household products in which CG was stable are listed below in tables 13 and 14. The “Surfactant Control” was composed as follows: 4% 1,3-propanediol, 4% alkyl polyglucoside (C8-C16), 2% ethoxylated fatty alcohol (Clariant Genapol LA 070), 90% deionized water. Cuminaldehyde Guanylhydrazone (CG) was added to several different commercial products. Stability testing was performed in refrigerator (2.8° C.), at room temperature (21.1° C.), in an oven (40° C.), and through 3 freeze-thaw cycles. It was determined that CG was stable in at least 4 different classes of household products including nonionic spray cleaners, polishes, hand soap, and liquid dish soap. […] Not intending to be theory-bound, these instabilities may be attributed mainly to carbonate, anionic surfactants, or high pH.

[9] = tested on: E. coli, S. aureus, P. aeruginosa, A. brasiliensis, B. cepacia, and C. albicans; details: 0.2% in nonionic spray cleaner base lacking additional preservatives; 28 days
Description: Preservative challenge testing (USP-51). The protocol for the preservative challenge testing followed the US Pharmacopeia Chapter 51 (USP 51). Under the USP 51 protocol, the test organisms are Candida albicans (ATCC No. 10231), Aspergillus brasiliensis (also referred to as A. niger) (ATCC No. 16404), Escherichia coli (ATCC No. 8739), Pseudomonas aeruginosa (ATCC No. 9027), and Staphylococcus aureus (ATCC No. 6538). To access the potency of a preservative in a personal care product formula, microorganisms were added separately to a sample of the product formula, such that their final concentrations were between 1.00E+05 and 1.00E+06 CFU (colony forming units)/mL of product. The inoculated personal care product formulas were incubated at specific temperatures (relative to the organism) and plated over the course of two weeks. During plating, the number of colony-forming units (CFU's) were counted to determine the number of viable microbial cells still present in the solution. Antimicrobial effectiveness is determined by logarithmic reductions in growth over time.
The effect of CG on mold, bacteria, and yeast were tested following the USP <51> procedure. […] For the instant examples, the criteria for passing the USP 51 preservative efficacy protocol against bacteria is a reduction of not less than 2-log 10 from the initial count at 14 days, and no increase from the 14 day count at 28 days. […]

[10] = tested on: mold; assay: USP <51> preservative efficacy in nonionic spray cleaner base (mold); type: cell-based, A. brasiliensis; details: alone, 0.1% in spray cleaner base
Description: (§5) Preservative challenge testing (USP-51).

[11] = tested on: S. enterica ATCC 10708; assay: AOAC Use Dilution test; type: cell-based, Salmonella enterica; details: 60 carriers tested, ten minutes contact time
Procedure: as §3, §4

[12] = tested on: Aspergillus brasiliensis ATCC 16404; assay: Effect of pH on antifungal properties of HW formula under high fungal load; type: cell-based; details: 10^7 CFU/mL, pH 5.5-9.5
Description: FIG. 1 illustrates the fungicidal properties of a handwash formula containing the inventive composition as further explained in the examples below. The Y axis presents the log reduction of cell forming units per mL (CFU/mL). The X axis presents the pH of the different formulas. Data for benzaldehyde guanylhydrazone 7+CHA is shown with black lines (BGH+CHA); data for benzaldehyde guanylhydrazone 7 (BGH) is shown with dotted lines; data for CHA alone is shown with grey lines.
(§6) This example illustrates the surprising synergistic antimicrobial activity of the inventive composition and related compositions for comparison tested on two of the most persistent microorganisms tested in the USP 51 protocol: A. brasiliensis (ATCC No. 16404) and P. aeruginosa (ATCC NO. 9027). The effect of pH on antifungal properties of a HW formula containing 0.4% 7 and 0.5% CHA, alone and in combination, was then evaluated under a high fungal load (10^7 CFU/mL). […] Without intending to be bound by theory, it was suspected that the poor performance of the combination at neutral pH results from the milder conditions of this formula, which is more encouraging to mold growth.

[13] = tested on: P. aeruginosa; assay: Minimum inhibitory concentration (MIC) in Mueller-Hinton broth, pH 7.4; type: cell-based, Pseudomonas aeruginosa; design: Minimum inhibitory concentration: unit not given here; details: for Minimum inhibitory concentration: Table 2, ATCC 9027
Procedure: as §1, §2
Guanylhydrazones 7 and 8, which represent a class of broad-spectrum antimicrobials, alone and in combination with hydroxamic acids were evaluated.

[14] = tested on: S. aureus; assay: as above; type: cell-based, Staphylococcus aureus
Procedure: as §1, §2

[15] = tested on: A. brasiliensis 16404; assay: USP-51 preservative challenge test of anionic, amphoteric surfactant-containing hand wash; type: cell-based, Aspergillus brasiliensis; details: HW pH 6; formulas: 0.4% 7; 0.5% CHA; 0.2% 7 + 0.5% CHA
Procedure: as §5, §6

[16] = tested on: C. albicans; assay: Minimum inhibitory concentration (MIC) in Mueller-Hinton broth, pH 7.4; type: cell-based, Candida albicans
Procedure: as §1, §2

[17] = tested on: E. coli; assay: as above; type: cell-based, Escherichia coli
Procedure: as §1, §2

[18] = hand soap formula, 0.2 wt % 8 alone
[19] = hand soap formula, 0.3 wt % 8 alone, minimum detection limit 5.0 × 10^1
[20] = HW, substance alone 0.1%, 1 × 10^6 CFU/ml, 37° C.

OCl [sodium hypochlorite]
reduction at 15 seconds [1]: 97.44% | reduction at 5 min [1]: > 99.998% | reduction at 10 min [1]: > 99.998%

CCCCCCCCc1ccc(C=NNC(=N)N)cc1 [4-n-octylbenzaldehyde guanylhydrazone 8, 4-n-octylbenzaldehyde guanylhydrazone]
CFU/mL after 7 d contact time [2, 18]: >2 × 10^4 CFU/mL | CFU/mL, incubation time 3 d [2, 19]: >2.5 × 10^4 CFU/mL | CFU/mL, incubation time 7 d [2, 19]: >2.5 × 10^4 CFU/mL | CFU/mL, incubation time 13 d [2, 19]: >2.5 × 10^4 CFU/mL | CFU/mL, incubation time 18 d [2, 19]: >2.5 × 10^4 CFU/mL | CFU/mL, incubation time 20 d [2, 19]: >2.5 × 10^4 CFU/mL | Minimum inhibitory concentration [3]: 0.002 | compatibility in water ([4]; sample preparation for extended preservative test): not compatible in water | CFU/mL after 7 d contact time [5, 18]: >2 × 10^4 CFU/mL

CC(C)c1ccc(/C=N/NC(=N)N)cc1 [CG, (2E)-2-{[4-(propan-2-yl)phenyl]methylidene} hydrazine-1-carboximidamidium]
Confirmed Positive carriers ([6]; CG 0.2 wt. % in water): 12 | Result ([6]; CG 0.2 wt. % in water): Fail (3) | Confirmed Positive carriers ([6]; CG 0.5 wt. % in water): 12 | Result ([6]; CG 0.5 wt. % in water): Fail (3) | Confirmed Positive carriers ([7]; CG 0.2 wt. % in water): 2 | Result ([7]; CG 0.2 wt. % in water): Pass (6) | Confirmed Positive carriers ([7]; CG 0.5 wt. % in water): 2 | Result ([7]; CG 0.5 wt. % in water): Pass (6) | stability in household products [8]: stable | USP 51 preservative efficacy protocol result against bacteria, yeast, and mold [9]: passed | log reduction of mold (not eliminated to nondetectable levels) [10]: < 4 log | Confirmed Positive carriers ([11]; CG 0.2 wt. % in water): 2 | Result ([11]; CG 0.2 wt. % in water): Fail (2) | Confirmed Positive carriers ([11]; CG 0.5 wt. % in water): 2 | Result ([11]; CG 0.5 wt. % in water): Fail (2)

O=C([O-])c1ccccc1.[Na+] [Sodium benzoate, sodium benzoate]
log reduction of mold (not eliminated to nondetectable levels) [10]: < 2 log

CCCCCCCC(=O)NO [Caprylhydroxamic acid (CHA), Caprylhydroxamic acid]
log reduction over the entire pH range ([12]; HW with 0.5% CHA alone, plated six days after inoculation): 0-1 log | MIC [13]: 0.5 wt % | Minimum inhibitory concentration [13]: 0.5 | MIC [14]: 0.2 wt % | MIC [3]: 0.03 wt % | Minimum inhibitory concentration [3]: 0.03 | Log10 Reduction, Day 6 [15]: 2.24 Log10 | MIC [16]: 0.03 wt % | dissolution behaviour ([4]; solubilizing for testing, room temperature): required heating and stirring to solubilize | MIC [17]: 0.1 wt %

N=C(N)NN=Cc1ccccc1 [Benzaldehyde guanylhydrazone 7, Benzaldehyde guanylhydrazone]
antifungal performance over the pH range ([12]; HW with 0.4% 7 alone): poor performance, except at high pH | Minimum inhibitory concentration [13]: 0.06 | Log reduction Week 2 ([2]; HW, 0.4 wt %, 1 × 10^6 CFU/mL, 25° C.): none | Log10 Reduction, Day 6 [15]: 0.35 Log10 | Day 3 Log Reduction [5, 20]: 4 Log | Day 10 Log Reduction [5, 20]: 4 Log
